Legend:
in vivo = conditions: mouse, in vivo, iv, total radioactivity
[1] = MicroPET of T47D tumor-bearing mice; format: in vivo; conditions: female, nude, mouse, T47D tumor, iv, total radioactivity, orthotopic model
Description: The MDA-MB-231, MDA-MB468, BT474, BT-20, T47D, MCF-7 and MDA-MB435 human breast cancer cell lines were all obtained from the American Type Culture Collection (ATCC) and maintained under standard conditions according to ATCC. The MDA-MB435 tumor model was established by orthotopic injections of 5×10^6 cells into the right mammary fat pad of female athymic nude mice. For T47D tumor model establishment, the female nude mice were first subcutaneously implanted with 60-day release 17β-estradiol pellets (Innovative Research of America, Sarasota, Fla.) in the left neck. One day after the estradiol implantation, 1×10^7 T47D cells were orthotopically injected into the right mammary fat pad of the nude mice. The mice were subjected to microPET studies when the tumor volume reached 100-300 mm^3 (2-3 weeks for MDA-MB-435, and 4-5 wk for T47D).
Quantification of tumor and major organ activity accumulation in the microPET scans was realized by measuring the regions of interest (ROIs) that encompassing the entire organ on the coronal images.

T47D tumor cells = assay: Cell uptake assay on T47D tumor cells; format: cell-based, human; conditions: 120 min, 37° C., n=3
Description: The cells suspensions were collected and measured in a y counter (Packard, Meriden, Conn.). The cell uptake was expressed as the percent added dose (% AD) after decay correction. Experiments were performed twice with triplicate wells.

PC-3 tumor cells = assay: Cell uptake assay on PC-3 tumor cells; format: cell-based, human; conditions: PC-3 cells
Summary of the method: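 PC-3 cells incubated with ^18F- or ^68Ga-labeled tracers (about 2 μCi or 18 kBq/well) at 37° C for 5–120 min, washed, then lysed or trypsinized and gamma-counted. Uptake given as % added dose, decay-corrected for ^68Ga; efflux measured after 1 h loading then 15–60 min in medium.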

[2] = MicroPET blood and normal organ uptake in T47D and MDA-MB-435 tumor-bearing nude mice; conditions: average of eight mice; for tissue uptake at 1 h / tissue uptake at 2 h / tissue uptake at 4 h / tissue uptake at 24 h / tissue uptake at 0.5 h: nude, mouse, iv, total radioactivity
Text: The T47D or MDA-MB435 tumor uptake is expressed as the average of each tracer in four mice, while the normal organ uptake is expressed as the average of each tracer in eight mice (four T47D tumor-bearing mice and four MDA-MB-435 tumor-bearing mice per tracer).

[3] = male, athymic nude, 5.5 MBq, Tumor uptake
[4] = male, athymic nude, 3.7 MBq, PC-3 tumor uptake
[5] = male, athymic nude, 3.7 MBq, PC-3 tumor uptake, dynamic scan
[6] = male, athymic nude, 3.7 MBq, PC-3 tumor uptake, static scan after dynamic scan

`CSCC[C@H](NC(=O)[C@H](CC(C)C)NC(=O)[C@H](Cc1c[nH]cn1)NC(=O)CNC(=O)[C@@H](NC(=O)[C@H](C)NC(=O)[C@H](Cc1c[nH]c2ccccc12)NC(=O)[C@H](CCC(N)=O)NC(=O)CCCCCNC(=O)CC[C@H](NC(=S)Nc1ccc(C[C@H]2CN(CC(=O)O)CCN(CC(=O)O)CCN2CC(=O)O)cc1)C(=O)NCCCC[C@@H]1NC(=O)[C@@H](Cc2ccc(O)cc2)NC(=O)[C@H](CC(=O)O)NC(=O)CNC(=O)[C@H](CCCNC(=N)N)NC1=O)C(C)C)C(N)=O` [^64Cu-NOTA-RGD-BBN, metal not drawn] showed a tissue uptake at 0.5 h (in vivo; male, athymic nude, 5.5 MBq, Blood uptake) of less than 1 %ID/g, a tissue uptake at 1 h (in vivo; male, athymic nude, 5.5 MBq, PC-3 tumor uptake with BBN blocking) of 0.76 ± 0.36 %ID/g and a tissue uptake at 1 h (in vivo; male, athymic nude, 5.5 MBq, PC-3 tumor uptake with RGD and BBN blocking) of 0.54 ± 0.41 %ID/g. The tissue uptake at 1 h (in vivo; male, athymic nude, 5.5 MBq, PC-3 tumor uptake with RGD blocking) was 1.64 ± 0.77 %ID/g, the tissue uptake at 0.5 h (in vivo; [3]) was 3.06 ± 0.11 %ID/g and the tissue uptake at 1 h (in vivo; [3]) was 2.78 ± 0.56 %ID/g. The tissue uptake at 4 h (in vivo; [3]) was 2.21 ± 0.49 %ID/g, the tissue uptake at 20 h (in vivo; [3]) was 2.04 ± 0.35 %ID/g and the tissue uptake at 24 h (in vivo; [3]) was 2.04 ± 0.35 %ID/g. For the same molecule, the tissue uptake (in vivo; male, athymic nude, 5.5 MBq, liver uptake) was 3.5 %ID/g, the tissue uptake at 1 h (in vivo; 5.5 MBq, Blood uptake) was 0.66 ± 0.15 %ID/g and the tissue uptake at 4 h (in vivo; 5.5 MBq, Blood uptake) was 0.49 ± 0.07 %ID/g. The tissue uptake at 20 h (in vivo; 5.5 MBq, Blood uptake) was 0.5 ± 0.15 %ID/g, the tissue uptake at 0.5 h (in vivo; 5.5 MBq, Kidney uptake) was 4.09 ± 0.81 %ID/g and the tissue uptake at 1 h (in vivo; 5.5 MBq, Kidney uptake) was 3.06 ± 0.25 %ID/g. The tissue uptake at 4 h (in vivo; 5.5 MBq, Kidney uptake) was 2.3 ± 0.41 %ID/g, the tissue uptake at 20 h (in vivo; 5.5 MBq, Kidney uptake) was 1.87 ± 0.41 %ID/g and the tissue uptake at 0.5 h (in vivo; 5.5 MBq, Liver uptake) was 3.46 ± 0.26 %ID/g. It also gave a tissue uptake at 1 h (in vivo; 5.5 MBq, Liver uptake) of 2.8 ± 1.15 %ID/g, a tissue uptake at 4 h (in vivo; 5.5 MBq, Liver uptake) of 1.83 ± 0.68 %ID/g and a tissue uptake at 20 h (in vivo; 5.5 MBq, Liver uptake) of 0.98 ± 0.4 %ID/g. The tissue uptake at 4 h ([1]; 4 h) was 1.94 ± 0.22 %ID/g, the tissue uptake at 24 h ([1]; 24 h) was 1.38 ± 0.16 %ID/g and the “T47D cell uptake value” (T47D tumor cells) was 5.30±0.53 % AD. For the same molecule, the cell uptake value (PC-3 tumor cells; 120 min) was 2.94 % added dose, the Blood uptake ([2]; 0.5 h) was 1.40 ± 0.34 % ID/g and the Kidney uptake ([2]; 0.5 h) was 5.29 ± 0.58 % ID/g. The Liver uptake ([2]; 0.5 h) was 4.82 ± 1.34 % ID/g, the Muscle uptake ([2]; 0.5 h) was 0.91 ± 0.27 % ID/g and the Kidney uptake ([2]; 1 h) was 4.32 ± 0.55 % ID/g. The Liver uptake ([2]; 1 h) was 4.05 ± 1.12 % ID/g, the Muscle uptake ([2]; 1 h) was 0.75 ± 0.12 % ID/g and the Kidney uptake ([2]; 2 h) was 3.28±0.99 % ID/g. The Liver uptake ([2]; 2 h) was 3.22 ± 0.97 % ID/g, the Muscle uptake ([2]; 2 h) was 0.56 ± 0.33 % ID/g and the tissue uptake at 1 h ([2]; blood, Blood uptake, 1 h) was 1.01 ± 0.21 %ID/g. For the same molecule, the tissue uptake at 2 h ([2]; blood, Blood uptake, 2 h) was 0.89 ± 0.23 %ID/g, the tissue uptake at 4 h ([2]; blood, Blood uptake) was 0.54 ± 0.2 %ID/g and the tissue uptake at 24 h ([2]; blood, Blood uptake) was 0.36 ± 0.04 %ID/g. It also gave a tissue uptake at 4 h ([2]; kidney, Kidney uptake) of 2.95 ± 0.26 %ID/g, a tissue uptake at 24 h ([2]; kidney, Kidney uptake) of 2.1 ± 0.72 %ID/g and a tissue uptake at 4 h ([2]; liver, Liver uptake) of 2.76 ± 0.81 %ID/g. It also gave a tissue uptake at 24 h ([2]; liver, Liver uptake) of 2.24 ± 0.36 %ID/g, a tissue uptake at 4 h ([2]; muscle, Muscle uptake) of 0.4 ± 0.07 %ID/g and a tissue uptake at 24 h ([2]; muscle, Muscle uptake) of 0.21 ± 0.04 %ID/g.

Molecule `CSCC[C@H](NC(=O)[C@H](CC(C)C)NC(=O)[C@H](Cc1c[nH]cn1)NC(=O)CNC(=O)[C@@H](NC(=O)[C@H](C)NC(=O)[C@H](Cc1c[nH]c2ccccc12)NC(=O)[C@H](CCC(N)=O)NC(=O)CCCCCNC(=O)CC[C@H](NC(=S)Nc1ccc(C[C@H]2CN(CC(=O)O)CCN(CC(=O)O)CCN2CC(=O)O)cc1)C(=O)NCCCC[C@@H]1NC(=O)[C@@H](Cc2ccc(O)cc2)NC(=O)[C@H](CC(=O)O)NC(=O)CNC(=O)[C@H](CCCNC(=N)N)NC1=O)C(C)C)C(N)=O` [^68Ga-NOTA-RGD-BBN, metal not drawn] has a tissue uptake at 1 h (in vivo; male, athymic nude, 10 mg/kg, PC-3 tumor uptake with RGD blocking, 1 h, 3.7 MBq, co-injected c(RGDyK) 10 mg/kg) of 2.08 ± 0.65 %ID/g, a tissue uptake at 0.5 h (in vivo; [4]) of 6.55 ± 0.83 %ID/g and a tissue uptake at 1 h (in vivo; [4]) of 5.26 ± 0.32 %ID/g. The tissue uptake at 2 h (in vivo; [4]) was 4.04 ± 0.28 %ID/g, the tissue uptake at 5 min (in vivo; [5]) was 5.56 %ID/g and the tissue uptake at 0.25 h (in vivo; [5]) was 6.68 %ID/g. It also gave a tissue uptake at 0.5 h (in vivo; [5]) of 6.7 %ID/g, a tissue uptake at 1 h (in vivo; [6]) of 4.47 %ID/g and a tissue uptake at 2 h (in vivo; [6]) of 3.75 %ID/g. It also gave a tissue uptake at 0.5 h (in vivo; male, athymic nude, 3.7 MBq, liver uptake (highest)) of roughly 2 %ID/g, a tissue uptake at 1 h (in vivo; male, athymic nude, PC-3 tumor uptake with BBN blocking, 1 h, 3.7 MBq, co-injected Aca-BBN(7-14) 15 mg/kg) of 1.61 ± 0.57 %ID/g and a tissue uptake at 1 h (in vivo; male, athymic nude, PC-3 tumor uptake with RGD+BBN blocking, 1 h, 3.7 MBq, co-injected RGD 10 mg/kg and BBN 15 mg/kg) of 0.42 ± 0.1 %ID/g. For the same molecule, the tissue uptake at 0.5 h ([1]; 0.5 h) was 3.91 ± 1.13 %ID/g, the tissue uptake at 1 h ([1]; 1 h) was 2.78 ± 0.87 %ID/g and the tissue uptake at 2 h ([1]; 2 h) was 2.42 ± 0.29 %ID/g. For the same molecule, the “T47D cell uptake value” (T47D tumor cells) was 2.42±0.23 % AD, the “cell uptake (plateau)” value (PC-3 tumor cells; 37° C., 15 min incubation) was 1.69±0.29 % AD and the Blood uptake ([2]; 0.5 h) was 2.91 ± 0.28 % ID/g. The Blood uptake ([2]; 1 h) was 1.95 ± 0.47 % ID/g, the Blood uptake ([2]; 2 h) was 1.06 ± 0.23 % ID/g and the Kidney uptake ([2]; 2 h) was 1.64±0.40 % ID/g. For the same molecule, the Liver uptake ([2]; 2 h) was 1.60 ± 0.09 % ID/g, the tissue uptake at 2 h ([2]; female, kidney, Kidney uptake, 2 h) was 1.64 ± 0.4 %ID/g and the tissue uptake at 0.5 h ([2]; female, liver, Liver uptake, 0.5 h) was 2.68 ± 0.29 %ID/g. For the same molecule, the tissue uptake at 0.5 h ([2]; kidney, Kidney uptake, 0.5 h) was 4.39 ± 1.05 %ID/g, the tissue uptake at 1 h ([2]; kidney, Kidney uptake, 1 h) was 3.96 ± 1.12 %ID/g and the tissue uptake at 1 h ([2]; liver, Liver uptake, 1 h) was 2.08 ± 0.43 %ID/g. For the same molecule, the tissue uptake at 0.5 h ([2]; muscle, Muscle uptake, 0.5 h) was 1.33 ± 0.28 %ID/g, the tissue uptake at 1 h ([2]; muscle, Muscle uptake, 1 h) was 1.18 ± 0.44 %ID/g and the tissue uptake at 2 h ([2]; muscle, Muscle uptake, 2 h) was 0.78 ± 0.07 %ID/g.

Reference: patent publication US20100015058A1, “RADIOLABELED BBN-RGD HETERODIMERS FOR CANCER TARGETING” (STANFORD UNIVERSITY, priority 2008, published 2010)
